“And” between values parts separate entries of the source, which are not always exact repeats. Identical values can stand only once. Like-named read-outs stand apart in the source and are kept apart here.
Tests used:
[1] = target: T1, recombinant human arginase 1 (Homo sapiens, UniProt P05089); assay: Arginase 1 inhibition, UPLC-MS measurement of ARG to ORN conversion in HEK293T cell lysate; settings: for remaining activity at 1 µM / remaining activity at 10 µM / remaining activity at 100 µM / remaining activity at 1000 µM / remaining activity at 10000 µM: read-out: % of control activity at the corresponding [Inhibitor] ± SE, arginase 1, mean of two experiments; for remaining activity at 1 µM: inhibitor 1 µM; for remaining activity at 10 µM: inhibitor 10 µM; for remaining activity at 100 µM: inhibitor 100 µM; for remaining activity at 1000 µM: inhibitor 1,000 µM; for remaining activity at 10000 µM: inhibitor 10,000 µM; for inhibition at 1000 µM: inhibitor 1 mM; for inhibition at 10000 µM: inhibitor 10 mM;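 as to all read-outs here: arginase 1–expressing HEK293T lysate at 0.05 mg/mL in pH 7.4 phosphate buffer, inhibitor preincubated 5 min with enzyme, then reaction started by adding ARG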
T1 sequence (P05089 1-322): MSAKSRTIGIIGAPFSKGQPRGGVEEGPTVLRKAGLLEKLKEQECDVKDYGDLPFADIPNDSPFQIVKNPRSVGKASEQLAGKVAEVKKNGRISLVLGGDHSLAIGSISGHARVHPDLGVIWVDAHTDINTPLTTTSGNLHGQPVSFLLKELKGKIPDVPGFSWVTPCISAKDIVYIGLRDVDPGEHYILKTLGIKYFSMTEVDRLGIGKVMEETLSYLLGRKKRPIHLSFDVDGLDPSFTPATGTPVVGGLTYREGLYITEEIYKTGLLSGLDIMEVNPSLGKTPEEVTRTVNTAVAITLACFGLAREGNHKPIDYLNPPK
Method: (§1) Following a 5-min pre-equilibration period reactions were initiated by the addition of the cell lysate solution in 0.05 M phosphate buffer to a pre-equilibrated aqueous solution of the substrate (ARG).
(§2) The samples were vortex mixed (20 sec) and cooled in an ice/water bath for 10 min prior to centrifugation (5 min, 18,000 × g, room temperature) to precipitate the proteins. An aliquot of the supernatant layer was diluted with a 7:3 mobile phase A/mobile phase B solution into glass UPLC vial inserts.
(§3) Incubation mixtures comprised of HEK293T cell lysate expressing arginase 1 (0.05 mg/mL) or arginase 2 (0.1 mg/mL), phosphate buffer (0.05 M, pH 7.4), inhibitor (0, 0.1, 1, 10, 100, 1000 or 10000 μM) and ARG (0.1, 2 or 3 mM). Following a 5-min pre-incubation of the potential inhibitor with arginase 1 or arginase 2, reactions were initiated by the addition of a pre-equilibrated solution of the substrate ARG.
Ki values were derived from fitting the competitive inhibition equation to experimental data. Ki data are the mean of three singlicate experiments.

[2] = target: arginase 2; settings: cited from earlier work
[3] = target: T2, recombinant human arginase 2 (Homo sapiens, UniProt P78540); assay: Arginase 2 inhibition, UPLC-MS measurement of ARG to ORN conversion in HEK293T cell lysate; settings: for remaining activity at 1 µM / remaining activity at 10 µM / remaining activity at 100 µM / remaining activity at 1000 µM / remaining activity at 10000 µM: read-out: % of control activity at the corresponding [Inhibitor] ± SE, arginase 2, mean of two experiments; for remaining activity at 1 µM: inhibitor 1 µM; for remaining activity at 10 µM: inhibitor 10 µM; for remaining activity at 100 µM: inhibitor 100 µM; for remaining activity at 1000 µM: inhibitor 1,000 µM; for remaining activity at 10000 µM: inhibitor 10,000 µM; for inhibition at 1000 µM: inhibitor 1 mM; for inhibition at 10000 µM: inhibitor 10 mM;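 as to all read-outs here: HEK293T lysate carrying arginase 2 at 0.1 mg/mL in 0.05 M phosphate buffer pH 7.4, inhibitor preincubated with enzyme 5 min before ARG addition started the reaction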
T2 sequence (P78540 23-354): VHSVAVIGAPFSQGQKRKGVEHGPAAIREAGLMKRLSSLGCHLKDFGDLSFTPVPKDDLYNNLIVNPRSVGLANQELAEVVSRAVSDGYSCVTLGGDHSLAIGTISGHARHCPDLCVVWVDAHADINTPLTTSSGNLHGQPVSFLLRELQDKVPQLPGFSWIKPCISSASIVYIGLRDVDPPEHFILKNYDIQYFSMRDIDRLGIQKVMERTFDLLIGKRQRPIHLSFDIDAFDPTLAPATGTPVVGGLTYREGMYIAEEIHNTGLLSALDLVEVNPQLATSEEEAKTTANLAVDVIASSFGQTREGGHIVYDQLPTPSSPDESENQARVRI
Method: as §1, §2, §3
Sample were diluted 3:17 in mobile phase solution prior injection.

[4] = system: arginase 1; settings: arginase 1; range previously reported; cited from earlier work
[5] = target: T2, recombinant human arginase 2; assay: Arginase 2 activity assay, kinetics of ARG conversion to ORN; format: biochemical
[6] = target: T1, recombinant human arginase 1; assay: Arginase 1 activity assay, kinetics of ARG conversion to ORN; format: biochemical; settings: conversion of ARG to ORN
Method: Incubation mixtures contained HEK293T cell lysate expressing recombinant human arginase 1 (0.05 mg/mL) or arginase 2 (0.1 mg/mL), phosphate buffer (0.05 M, pH 7.4) and ARG (0 to 15 mM).
as §1, §2
Kinetic data are the mean of three singlicate experiments.

[7] = read-out: inhibition of arginase 1 activity, ARG 100 µM (physiological)
[8] = read-out: inhibition of arginase 1 activity, ARG 3 mM (Km)
[9] = read-out: inhibition of arginase 2, ARG 100 µM
[10] = read-out: inhibition of arginase 2, ARG 2 mM

## NCCCC[C@H](N)C(=O)O [LYS, lysine]
[1]; LYS 100–1000 µM, HOMOARG 1–10 µM
  inhibitory effect on arginase 1 activity at physiological inhibitor concentrations: no significant inhibitory effects
[1]; arginase 1, poorly fit by uncompetitive, noncompetitive and mixed models
  inhibition model fitting the data: competitive
[1]; ARG 100 µM
  remaining activity at 1 µM: 88 ± 21%
  remaining activity at 10 µM: 89 ± 10%
  remaining activity at 100 µM: 105 ± 18%
  remaining activity at 1000 µM: 56 ± 5%
  remaining activity at 10000 µM: 19 ± 1%
[1]; ARG 3 mM
  remaining activity at 1 µM: 108 ± 13%
  remaining activity at 10 µM: 103 ± 10%
  remaining activity at 100 µM: 82 ± 4%
  remaining activity at 1000 µM: 63 ± 8%
  remaining activity at 10000 µM: 22 ± 1%
[1]; [7]
  inhibition at 1000 µM: 44%
  inhibition at 10000 µM: 81%
[1]; [8]
  inhibition at 1000 µM: 39%
  inhibition at 10000 µM: 78%
[2]; arginase 2 inhibition, ref Colleluori et al. 15
  Ki: 7000 µM
[3]
  Ki: 500 ± 30 µM
[3]; IC50 ( ± SE), arginase 2, ARG 2 mM
  IC50: 900 µM and 880 µM
[3]; arginase 2, poorly fit by uncompetitive, noncompetitive and mixed models
  inhibition model fitting the data: competitive
[3]; physiological LYS and HOMOARG concentrations
  inhibition of arginase 2 at physiological inhibitor concentrations: no significant inhibition
[3]; ARG 100 µM
  remaining activity at 1 µM: 92 ± 6%
  remaining activity at 10 µM: 97 ± 5%
  remaining activity at 100 µM: 78 ± 11%
  remaining activity at 1000 µM: 56 ± 14%
  remaining activity at 10000 µM: 12 ± 4%
[3]; ARG 2 mM
  remaining activity at 1 µM: 88 ± 6%
  remaining activity at 10 µM: 82 ± 6%
  remaining activity at 100 µM: 84 ± 5%
  remaining activity at 1000 µM: 58 ± 1%
  remaining activity at 10000 µM: 33 ± 4%
[3]; [9]
  inhibition at 1000 µM: 44%
  inhibition at 10000 µM: 88%
[3]; [10]
  inhibition at 1000 µM: 42%
  inhibition at 10000 µM: 67%

## N=C(N)NCCC[C@H](N)C(=O)O [ARG, arginine]
[4]
  Km: 1000 to 9000 µM
[5]; Expt 1
  Vmax (pmol·min^−1·mg^−1) ± SE: 984 ± 8 pmol/min/mg
[5]; Expt 1, read-out: Km (mM) ± SE
  Km: 2.4 ± 0.1 mM
[5]; Expt 2
  Vmax (pmol·min^−1·mg^−1) ± SE: 837 ± 12 pmol/min/mg
[5]; Expt 2, read-out: Km (mM) ± SE
  Km: 1.7 ± 0.1 mM
[5]; Expt 3
  Vmax (pmol·min^−1·mg^−1) ± SE: 834 ± 5 pmol/min/mg
[5]; Expt 3, read-out: Km (mM) ± SE
  Km: 1.8 ± 0.1 mM
[5]; Mean
  Vmax (pmol·min^−1·mg^−1) ± SE: 883 ± 16 pmol/min/mg
[5]; Mean, read-out: Km (mM) ± SE
  Km: 1.9 ± 0.1 mM
[2]; arginase 2, range previously reported
  Km: 1000 to 7000 µM
[6]; Expt 1
  Vmax (nmol·min^−1·mg^−1) ± SE: 37 ± 1 nmol/min/mg
[6]; Expt 1, read-out: Km (mM) ± SE
  Km: 3.4 ± 0.4 mM
[6]; Expt 2
  Vmax (nmol·min^−1·mg^−1) ± SE: 32 ± 1 nmol/min/mg
[6]; Expt 2, read-out: Km (mM) ± SE
  Km: 3.8 ± 0.2 mM
[6]; Expt 3
  Vmax (nmol·min^−1·mg^−1) ± SE: 35 ± 1 nmol/min/mg
[6]; Expt 3, read-out: Km (mM) ± SE
  Km: 3.5 ± 0.2 mM
[6]; Mean
  Vmax (nmol·min^−1·mg^−1) ± SE: 34 ± 1 nmol/min/mg
